Laboratory results as given in PubChem BioAssay AID488890 (Southern Research Specialized Biocontainment Screening …, 2010).
Results filed as inconclusive are left out. Calls of active or inactive are those of the source. The rule behind the calls is not given here.

Test system: Mycobacterium tuberculosis non-replicating, growth inhibition
Test: growth inhibition of non-replicating M. tuberculosis (AID 488890)

SMILES	IC50
CCCn1nnc(NC(=O)COc2ccc(CC)cc2)n1	17.9 µM (inactive)
Cc1cc(C(=O)N/N=C/c2ccc([N+](=O)[O-])s2)n[nH]1	3.31 µM
Cc1cc(NC(=O)COC(=O)COc2ccc(C(=O)c3ccccc3)cc2)no1	18.3 µM (inactive)
Cc1ccc(NCCC(=O)c2cccs2)cc1Cl	3.56 µM
COc1ccc(-c2cc(=O)oc(-c3cccc(C)c3)n2)cc1	8.24 µM
Cc1[nH]c2ccccc2c1C(=O)C(C)OC(=O)c1ccc([N+](=O)[O-])o1 (configuration not stated)	1.07 µM
O=C(Cn1cc([N+](=O)[O-])nc1[N+](=O)[O-])N1CCN(c2ccccc2)CC1	12.8 µM (inactive)
O=C(N/N=C/c1cccc([N+](=O)[O-])c1O)c1cccs1	2.34 µM
CC1(C)C[C@H]2C=C(C=O)[C@]3(C=O)C[C@]3(C)[C@H]2C1	2.94 µM
O=C1CCC/C(=N/Nc2ccc(Cl)cc2)C1	3.72 µM
O=C1CC(N2CCSCC2)C(=O)N1CCc1ccccc1 (configuration not stated)	19.1 µM (inactive)
CCn1nnc(NC(=O)c2ccc(-c3ccc(Cl)cc3)o2)n1	3.07 µM
CCOCC(=O)Nc1ccc(C)c(Cl)c1	5.63 µM
C/C(=N\NC(=O)CCCNc1ccc(C)cc1)c1ccccn1	9.07 µM
O=C(OCn1nnc2ccccc2c1=O)c1cccs1	12.4 µM (inactive)
CC1COC(=O)C(NNc2ccc(Cl)c(Cl)c2)=N1 (configuration not stated)	8.67 µM
Cc1ccc(C(=O)n2c(N)nc3ccccc32)cc1	16.6 µM (inactive)
O=C(COC(=O)c1cccc([N+](=O)[O-])c1)NCc1cccs1	25.7 µM (inactive)
O=C(NCCC1=CCCCC1)c1ccc(F)cc1	1.36 µM
Cc1cc(C)c2nc(/N=C(\N)NC(=O)Nc3ccccc3)nc(C)c2c1	13.3 µM (inactive)
Cc1cc(C)nc(-n2nc(C)cc2Nc2ccccc2)n1	5.25 µM

SMILES	IC50
Cc1ccc(C(=O)NCCOc2cccc(C)c2)cc1	3.92 µM
Cc1cc(Br)ccc1OCC(=O)NNC(=O)c1cnccn1	6.09 µM
COc1ccc(/C=N/Nc2cc(C)nc(-n3nc(C)cc3C)n2)cc1	3.25 µM
CC1CCN(C(=O)COC(=O)c2cc3ccccc3cc2O)CC1	2.04 µM
Clc1c(OCCCn2ccnc2)ccc2ccccc12	9.74 µM
CCCCN1C(=O)C2(NNc3ccccc3O2)c2ccccc21 (configuration not stated)	4.67 µM
COc1ccc(/C=N/Nc2cc(C)nc(-n3nc(C)cc3C)n2)c(OC)c1	3.3 µM
COc1ccc(C(=O)COC(=O)c2ccccc2O)c(OC)c1	1.46 µM
Cc1c(CN2CCC(CO)(CCOc3ccccc3)CC2)[nH]c2c(Cl)cccc12	8.93 µM
C/C(O)=C\c1nc2ccccc2oc1=O	3.18 µM
O=C1NC(=O)C(=Cc2ccc(-c3ccc(Cl)cc3)o2)C(=O)N1	< 0.1 µM
O=C(N/N=C/c1cccc2cccnc12)[C@H]1C[C@@H]1c1ccccc1	13.1 µM (inactive)
O=[N+]([O-])c1ccc2nc(-c3ccccn3)[nH]c2c1	18.3 µM (inactive)
CC(=O)N1CCN(c2cc3c(cc2F)c(=O)c(C(=O)O)cn3C2CC2)CC1	1.42 µM
CCCCNC(=O)Nc1nnc(-c2ccc(OCC)cc2)o1	21.9 µM (inactive)
O=C(OCc1ccccn1)c1ccc(COc2ccccc2Cl)o1	3.14 µM
CC(/C=C/c1ccco1)=N\NC(=O)c1cccc(Cl)c1	4.86 µM
O=C(Nc1ccccc1N1CCCC1)c1cccc(F)c1	24.4 µM (inactive)
CC1=NN(C(=O)c2csc(C)c2)C(O)(C(F)(F)F)C1 (configuration not stated)	0.49 µM
CCn1c(O)c(C(=O)CC2NCCc3ccccc32)c(=O)n(CC)c1=S (configuration not stated)	21.8 µM (inactive)
COc1ccc(NC(=O)C(=O)NNC(=O)C(C)Oc2ccc(Cl)cc2Cl)cc1 (configuration not stated)	1.53 µM

SMILES	IC50
Cc1cc(C(=O)N/N=C/c2cccc(Cl)c2Cl)no1	1.01 µM
COc1cccc(NC(=O)c2cc3ccccc3oc2=O)c1	15.2 µM (inactive)
CCOC(=O)CN1NC2(CCC(C)CC2)NC1=S (configuration not stated)	15.2 µM (inactive)
Cc1n[nH]c(C)c1CCOc1ccc(C(C)C)cc1	19.5 µM (inactive)
COc1cccc2sc(Nc3nnc(-c4cccs4)o3)nc12	4.87 µM
COc1ccc(C2(O)CCN(CCCCOc3ccccc3)CC2)cc1	18.1 µM (inactive)
COc1ccc(C(=O)Nc2nnc(-c3ccccc3)o2)cc1OC	10.4 µM (inactive)
O=C1CCCCC1Sc1nnc(-c2ccc3c(c2)OCO3)o1 (configuration not stated)	1.83 µM
O=C(NNC1=Nc2ccccc2SC1)c1ccc(F)cc1	17.3 µM (inactive)
CCOC(=O)C1CCCN(Cc2ccc(OCc3ccccc3)cc2)C1 (configuration not stated)	21.8 µM (inactive)
CCOc1ccc(NC(=O)COc2ccc3c(c2)OCO3)cc1	10.6 µM (inactive)
Cc1ccccc1OCCNc1cc(N2CC(C)NC(C)C2)ccc1[N+](=O)[O-] (configuration not stated)	10.8 µM (inactive)
c1ccc(-c2nc(NCCCn3ccnc3)c3ccccc3n2)cc1	17.8 µM (inactive)
CCOc1cccc(/C=N/NC(=O)c2ccc3c(c2)OCCO3)c1O	1.12 µM
O=C(NCc1ccc(Cl)cc1)c1n[nH]c([N+](=O)[O-])c1Cl	13.9 µM (inactive)
Cc1ccc2nc(NC(=O)c3ccccn3)sc2c1	0.63 µM
COCCOC(=O)c1c(C)oc2ccc(OC(=O)c3ccco3)cc12	9.15 µM
COc1ccc2cc(C(=O)NCc3ccccc3CN3CCCC3)ccc2c1	17.7 µM (inactive)
Cc1cc(C)cc(OC(=O)CCN2C(=O)c3ccccc3C2=O)c1	19.4 µM (inactive)
COc1ccc(C(C)NC(=O)CCc2ccccc2)cc1 (configuration not stated)	34.9 µM (inactive)
CC(=O)Nc1ccc(OC(=O)c2ccc(Br)c([N+](=O)[O-])c2)cc1	8.96 µM

SMILES	IC50
COc1ccc(/C=C/c2nc3ccccc3c(=O)o2)cc1	2.74 µM
COc1ccc(CN=C2NN=C(c3ccc(Cl)cc3)CS2)cc1	13.8 µM (inactive)
CC1(C(=O)NC(=S)NNC(=O)c2ccncc2)CCCCC1	0.94 µM
O=C(NC1CCOc2ccccc21)c1ccc(Cl)nc1 (configuration not stated)	1.46 µM
COc1ccc(NC(=O)COc2ccccc2)cc1Cl	22.2 µM (inactive)
CCOc1ccccc1C(=O)OCC(=O)Nc1nnc(-c2ccccc2)o1	21.7 µM (inactive)
O=C(NCC(c1cccs1)N1CCOCC1)c1cc([N+](=O)[O-])cc([N+](=O)[O-])c1 (configuration not stated)	2.96 µM
CCCC(C)C(=O)Nc1ccc(Cl)cn1 (configuration not stated)	10.3 µM (inactive)
CC(C)(C)c1ccc(NC(=O)COc2ccc(-n3ccnc3)cc2)cc1	30.2 µM (inactive)
CC(NC(=O)c1cc2cc(Br)ccc2oc1=N)c1ccccc1 (configuration not stated)	6.97 µM
Nc1nnc(Sc2ncccc2[N+](=O)[O-])s1	17 µM (inactive)
O=C1NC(=O)N(Cc2ccco2)C(=O)/C1=C\c1cccn1CCOc1ccc(Cl)cc1	7.42 µM
Cc1ccc(-n2sc3ccccc3c2=O)cc1	14.3 µM (inactive)
Cc1ccnc(-n2c(C)cc(/C=C3\C(=O)NC(=S)N(C)C3=O)c2C)c1	25.7 µM (inactive)
CCOC(=O)c1ccc(COC(=O)c2cc3ccccc3oc2=O)o1	12.1 µM (inactive)
Cc1cc(C(=O)NNc2cc(Cl)ccc2Cl)no1	18.7 µM (inactive)
Cc1cc(/C=N\NC(=O)c2cccs2)c(C)n1-c1ccc2ncccc2c1	> 25 µM (inactive)
CCS(=O)(=O)c1c([N+](=O)[O-])ncn1C	19.5 µM (inactive)
CC1=NN(C(=O)c2ccc(C)o2)C(O)(c2ccccc2)C1 (configuration not stated)	3.05 µM
